Assay [1] concerns the target T1, human FXR alpha ligand binding domain (Homo sapiens, UniProt Q96RI1).
T1 construct: made in house; host or cells: E. coli BL21(DE3), vector pDEST15
T1 sequence (Q96RI1 187-472 isoform Q96RI1-2): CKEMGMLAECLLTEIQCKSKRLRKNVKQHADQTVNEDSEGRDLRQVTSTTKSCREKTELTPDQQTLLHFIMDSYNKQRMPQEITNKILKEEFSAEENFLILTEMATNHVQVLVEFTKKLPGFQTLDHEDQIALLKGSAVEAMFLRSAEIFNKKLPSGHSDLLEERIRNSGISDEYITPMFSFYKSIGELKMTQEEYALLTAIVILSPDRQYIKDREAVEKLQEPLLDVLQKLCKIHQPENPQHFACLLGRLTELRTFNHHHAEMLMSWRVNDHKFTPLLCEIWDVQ
Put plainly: FRET activity assay (ligand mediated cofactor peptide interaction, LANCE). The format is biochemical. The note with it: GST-FXR-LBD / biotinylated SRC-1 peptide (676-700), read-out: F EC50. The essentials: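 GST-tagged FXR LBD (aa 187–472, E. coli-expressed) at 20–60 ng/well with 200–600 nM biotinylated SRC-1 peptide (676–700), streptavidin-APC and Eu anti-GST in Tris pH 7.5 buffer, 1% DMSO, equilibrated 1 h dark at room temperature. TR-FRET read as 665/615 nm ratio; agonists raise signal above basal.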

Assay [2] deals with T2, FXR ligand binding domain (Homo sapiens, UniProt Q96RI1).
T2 construct: expressed in transfected cells; host or cells: HEK293 cells, transiently transfected with pCMV-BD-FXR-LBD, pFR-Luc and pRL-CMV
T2 sequence (Q96RI1 187-472 isoform Q96RI1-2): T1 sequence (Q96RI1 187-472 isoform Q96RI1-2)
Briefly: Mammalian One Hybrid (M1H) assay, Gal4 promoter driven transactivation in HEK293 cells. The format is cell-based. The note with it: Gal4-FXR-LBD luciferase reporter, 16 h. The essentials:
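HEK293 cells were transiently co-transfected with Gal4-DBD fused to the human FXR LBD (aa 187-472, NM_005123), a 5×GAL4-site firefly luciferase reporter and CMV-Renilla control. Compounds were added 2-4 h post-transfection (vehicle ≤0.1%) in charcoal/dextran-stripped FBS medium for 16 h. Firefly and Renilla luciferase were read sequentially, in triplicate.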

These results are taken from US9751874B2, “Hydroxy containing FXR (NR1H4) modulating compounds” (Gilead Sciences, Inc., priority 2014, dated 2017).

The structures appear in SMILES notation. Counter-ions that a name gives are not always drawn.

Consider `O=C(O)CNC(=O)c1cc(F)c2nc([C@]3(O)[C@@H]4CC[C@H]3C[C@H](OCc3c(-c5c(Cl)cccc5Cl)noc3C3CC3)C4)sc2c1` [Example 38, 2-(2-((1R,3s,5S,8r)-3-((5-Cyclopropyl-3-(2,6-dichlorophenyl)isoxazol-4-yl)methoxy)-8-hydroxybicyclo[3.2.1]octan-8-yl)-4-fluorobenzo[d]thiazole-6-carboxamido)acetic acid], for which the EC50 in assay [1] came out at 3 nM; in assay [2], 1270 nM.
Turning to `O=C(NCCS(=O)(=O)O)c1cc(F)c2nc([C@]3(O)[C@@H]4CC[C@H]3C[C@H](OCc3c(-c5c(Cl)cccc5Cl)noc3C3CC3)C4)sc2c1` [Example 39, 2-(2-((1R,3s,5S,8r)-3-((5-Cyclopropyl-3-(2,6-dichlorophenyl)isoxazol-4-yl)methoxy)-8-hydroxybicyclo[3.2.1]octan-8-yl)-4-fluorobenzo[d]thiazole-6-carboxamido)ethanesulfonic acid, ammonia salt], the EC50 in assay [1] is 3.2 nM; in assay [2], 760 nM.
On the same counts, the results for `O[C@@]1(c2nc3ccc(CN4CCOCC4)cc3s2)[C@@H]2CC[C@H]1C[C@H](OCc1c(-c3c(Cl)cccc3Cl)noc1C1CC1)C2` [Example 43, (1R,3s,5S,8r)-3-((5-Cyclopropyl-3-(2,6-dichlorophenyl)isoxazol-4-yl)methoxy)-8-(6-(morpholinomethyl)benzo[d]thiazol-2-yl)bicyclo[3.2.1]octan-8-ol] are 15 nM and 15 nM.
Turning to `O=C(O)Cc1nc([C@]2(O)[C@@H]3CC[C@H]2C[C@H](OCc2c(-c4c(Cl)cccc4Cl)noc2C2CC2)C3)oc1C(F)(F)F` [Example 45, 2-(2-((1R,3s,5S,8r)-3-((5-Cyclopropyl-3-(2,6-dichlorophenyl)isoxazol-4-yl)methoxy)-8-hydroxybicyclo[3.2.1]octan-8-yl)-5-(trifluoromethyl)oxazol-4-yl)acetic acid], the EC50 in assay [1] was 6 nM; in assay [2] it was 7.9 nM.
On the same counts, the results for `O=C(O)Cc1csc([C@]2(O)[C@@H]3CC[C@H]2C[C@H](OCc2c(-c4c(Cl)cccc4Cl)noc2C2CC2)C3)n1` [Example 46, 2-(2-((1R,3s,5S,8r)-3-((5-Cyclopropyl-3-(2,6-dichlorophenyl)isoxazol-4-yl)methoxy)-8-hydroxybicyclo[3.2.1]octan-8-yl)thiazol-4-yl)acetic acid] are 42 nM and 260 nM.
As for `O=C(O)c1cc(F)c2nc([C@]3(O)[C@@H]4CC[C@H]3C[C@H](OCc3c(C5CC5)cnn3-c3c(Cl)cccc3Cl)C4)sc2c1` [Example 47, 2-((1R,3s,5S,8r)-3-((4-Cyclopropyl-1-(2,6-dichlorophenyl)-1H-pyrazol-5-yl)methoxy)-8-hydroxybicyclo[3.2.1]octan-8-yl)-4-fluorobenzo[d]thiazole-6-carboxylic acid], the EC50 in assay [1] stood at 1.1 nM; in assay [2], 7.9 nM.
